Test results from US11565003B2, “Mechanical opening of lipid bilayers by molecular nanomachines” (William Marsh Rice University, priority 2016, dated 2023).
Starred links: 1 amine or outer side, 2 acyl side, 3 side chain; linkers in the order of their positions; H or OH if unused. Positions of bridges follow the written chain, without caps; N, C: chain ends. Residues, ends and D or L forms follow the SMILES beside them. Chains are numbered I, II in the order given. X2 = C[C@@H]1Cc2ccc3ccccc3c2C1=C1c2cc(C#CCCn3cc(C(=O)[*:1])nn3)ccc2Sc2ccc(C#CCCn3cc(C(=O)[*:2])nn3)cc21

Columns and labels:
PC-3 cells [1] = assay: UV-activated nanomechanical necrosis, live cell confocal microscopy, PC-3; assay type: cell-based, human; conditions: for Time of Full Necrosis / Time of Initial Necrosis / % acceleration for full necrosis: 355 nm UV; for % acceleration for full necrosis: versus UV upon blank cells
Method: (§1) Following the synthetic bilipid vesicle experiments, nanomechanical action upon live cells was studied using confocal microscopy aided by a super-resolution technique called Phase Modulation Nanoscopy. Applicants used two experimental methods. In the first method (Method A), the molecular motors were loaded into the cell media and the imaging was initiated within 5 minutes to 24 hours. In the second method, (Method B), the molecular motors were loaded into the cell media, incubated for 30 minutes to 24 hours, and then washed three times with fresh molecular motor-free media before imaging.
Next, Applicants used the smaller nanomachine, 3. Initial control experiments (blank) were performed without nanomachines being present. UV-induced (355 nm) PC-3 necrosis is not initiated until approximately scan 20 (corresponding to 300 second continuous scanning UV exposure, 400 nJ/voxel total dwell time), characterized by massive disruption and rupture of the mitochondrial network and subsequent well-pronounced auto-fluorescent signal detectable in the nucleoli and nucleus wall (FIG. 7A). This is observable by the nucleoli membrane permeabilization and DNA damage at the onset of necrosis. The UV-induced necrosis reaches final stages at approximately scan 40 (corresponding to 600 seconds) that is consistent with characteristic extracellular membrane rupture and homogenous cytosolic auto-fluorescence, indicating loss of cellular organelle boundaries.
(§2) Microscopy cells were seeded in untreated iBibi 100 μL live cell channels and allowed to grow to 40% to 60% confluence, at 37° C. in 5% CO2. At this stage, the medium was replaced and cells were treated with the studied nanomachines and co-stains as appropriate, with 0.1% DMSO (as detailed above) present in the final imaging medium. For live cell imaging, DMEM/F12 media (10% FBS) lacking phenol red was used from this point onwards. Following incubation, where Method B was used, the channels were washed with live cell imaging media and imaged using a purpose build incubator housing the microscope maintaining 37° C., 5% CO2 and 10% humidity.
(§3) All live cell imaging experiments used either NIH 3T3 mouse skin fibroblast cells, PC-3 cells, a grade 3 human prostate adenocarcinoma, or Chinese hamster ovary cells (CHO). These are all well-studied cell lines with discrete morphological compositions. Each molecular machine was used as a stock solution at 0.10 to 1.00 μM with total dimethyl sulfoxide (DMSO) concentrations not exceeding 0.1% in the final cell media in order to avoid unwanted cell membrane permeabilization, the DMSO being required for solubility of the organic nanomachines. All loading experiments are carried out in a light-suppressed manner and the possibility of induced or accelerated uptake due to interaction between the molecular motors and the applied co-stain has been eliminated using a series of individual and reversed loading experiments.
(§4) All experimental imaging parameters (i.e., laser beam size, confocal pinhole size, laser intensity, line scanning speed, scanning area (field of view, FOV), and line averaging sequences) were kept constant throughout the experiments. The accuracy and errors associated with the establishment of accelerated necrosis are determined based on one dual channel imaging sequence, which takes 15 seconds in total. This imaging sequence has been carefully established using untreated live cells.
Steady state fluorescence images were recorded using a PhMoNa enhanced Leica SP5 II LSCM equipped with a HCX PL APO 63×/1.40 NA LambdaBlue Oil immersion objective. As an initial control experiment to establish the UV-induced cell toxicity threshold, while mitigating voxel exposure and ensuring sufficient laser dwell time, an imaging sequence has been established to monitor cell morphological and physiological changes as a function of time. All experiments used cell-line-determined culture medium containing 0.1% DMSO. […]

NIH 3T3 cells = assay: UV-activated nanomechanical necrosis, live cell confocal microscopy, NIH 3T3; assay type: cell-based, mouse; conditions: for Time of Full Necrosis / Time of Initial Necrosis / % acceleration for full necrosis: 355 nm UV; for % acceleration for full necrosis: versus UV upon blank cells
Method: as §1, with “imaging. […]” for “imaging.”
as §2, §3, §4
(§5) Steady state fluorescence images were recorded using a PhMoNa enhanced Leica SP5 II LSCM equipped with a HCX PL APO 63×/1.40 NA LambdaBlue Oil immersion objective. As an initial control experiment to establish the UV-induced cell toxicity threshold, while mitigating voxel exposure and ensuring sufficient laser dwell time, an imaging sequence has been established to monitor cell morphological and physiological changes as a function of time. All experiments used cell-line-determined culture medium containing 0.1% DMSO.
(§6) The applied 100 Hz detection sequence was based on a bidirectional dual-channel continuous scanning method where a minimalistic non-damaging visible laser light (458 nm, 0.2 mW) is used in conjunction with the above detailed UV exposure. This is set as a 2 line/scan accumulation parallel acquisition sequence that is recorded as a function of time. Studied channels correspond to transmission images and UV-induced mitochondrial auto-fluorescence detected at 460 to 550 nm. Applicants further confirmed that the effectiveness of monitoring the UV-activated nanomechanical action on live cells using a conventional CW mercury-arc excitation source equipped with an epi-fluorescence setup consisting of a Zeiss Axiovert 200M inverted microscope, as discussed in FIGS. 18A-C. […]

CHO cells = assay: UV-activated nanomechanical necrosis, live cell confocal microscopy, CHO; assay type: cell-based, Chinese hamster; conditions: 355 nm UV; for % acceleration for full necrosis: versus UV upon blank cells
Method: as §1, with “imaging. […]” for “imaging.”
as §2, §3, §4, §5, §6

PC-3 cells [2] = assay: 24 hours incubation without UV: proliferation and apoptosis (Annexin V, Image Cytometry); assay type: cell-based, human
Method: When PC-3 cells are loaded at 0.5 or 1.0 μM with 9 or 10, washed three times (Method B) or unwashed (Method A) after 24 hours of incubation, the cells visually appear without major signs of toxicity. However, the cells which had been incubated with 9 or 10 over 24 hours were not dividing as prolifically. The cultures appear to be populated ˜25% less in the presence of 9 and 20% of the cells in 10 compared to control untreated cells (FIGS. 12A-E).
In order to further investigate this point, these cells were collected via gentle centrifugation and re-suspended in fresh PBS and analyzed by Image Cytometry. Using Annexin V, these cells were all confirmed to show signs of apoptosis at 93±5%. This is in contrast to the remaining coverslip surface-bound cells that appear healthy.
These latter types of non-apoptotic cells show identical percentage of necrosis acceleration upon subsequent UV-activation of the cell-surface bound nanomachines compared to their shorter incubation time analogues. Thus, it appears that, upon 24 hour incubation, a noticeable amount of cells have nanomachines 9 and 10 either bound to vital cell membrane channels or transport proteins or they are internalized, subsequently shutting down some natural homeostatic mechanisms that leads to programmed cell death (FIGS. 12A-E). Furthermore, this is not the case with shorter incubation times regardless of whether Method A or B is used.

[3] = PC-3, Method B (washed three times)
[4] = NIH 3T3, Method B (washed three times)

Question: Which results are given for `CC(C)[C@H](NC(=O)[C@H](CCCNC(=N)N)NC(=O)[C@@H](NC(=O)[C@H](CC(N)=O)NC(=O)[C@H](CO)NC(=O)c1cn(CCC#Cc2ccc3c(c2)C(=C2c4c(ccc5ccccc45)C[C@H]2C)c2cc(C#CCCn4cc(C(=O)N[C@@H](CO)C(=O)N[C@@H](CC(N)=O)C(=O)N[C@H](C(=O)N[C@@H](CCCNC(=N)N)C(=O)N[C@H](C(=O)N[C@@H](C)C(=O)N5CCC[C@H]5C(=O)O)C(C)C)[C@@H](C)O)nn4)ccc2S3)nn1)[C@@H](C)O)C(=O)N[C@@H](C)C(=O)N1CCC[C@H]1C(=O)O` [Compound 9] (I: SNTRVAP-OH / II: SNTRVAP-OH; linker I:N-II:N via X2)?
Answer: selectivity for targeted PC-3 cells over non-targeted control cells (in words) (PC-3 cells [1]; NIH 3T3 and CHO as non-targeted controls): selectively target the PC-3 cell line over CHO cells; Time of Full Necrosis (PC-3 cells [1]; PC-3, Method A (no washing)): 360 s; Time of Initial Necrosis (PC-3 cells [1]; PC-3, Method A (no washing)): 150 s; % acceleration for full necrosis (PC-3 cells [1]; PC-3, Method A): 40%; Time of Full Necrosis (PC-3 cells [1]; [3]): 390 s; Time of Initial Necrosis (PC-3 cells [1]; [3]): 180 s; % acceleration for full necrosis (PC-3 cells [1]; PC-3, Method B): 35%; accelerated necrosis upon UV-activation after washing and further 24 hours in rotor free media (PC-3 cells [1]; PC-3, incubated 30 minutes to 4 hours, washed three times, 24 hours rotor free media): 25%; Time of Full Necrosis (NIH 3T3 cells; NIH 3T3, Method A (no washing)): 570 s; Time of Initial Necrosis (NIH 3T3 cells; NIH 3T3, Method A (no washing)): 300 s; % acceleration for full necrosis (NIH 3T3 cells; NIH 3T3, Method A): 5%; Time of Full Necrosis (NIH 3T3 cells; [4]): 600 s; Time of Initial Necrosis (NIH 3T3 cells; [4]): 300 s; % acceleration for full necrosis (NIH 3T3 cells; NIH 3T3, Method B): 0%; UV-accelerated nanomechanical necrosis after 24 hours incubation (in words) (NIH 3T3 cells; NIH 3T3, incubated 24 hours): no change in rates; Time of Full Necrosis (CHO cells; Method A (no washing)): 585 s; Time of Initial Necrosis (CHO cells; Method A (no washing)): 300 s; % acceleration for full necrosis (CHO cells; Method A): 2.5%; Time of Full Necrosis (CHO cells; Method B (washed three times)): 570 s; Time of Initial Necrosis (CHO cells; Method B (washed three times)): 285 s; % acceleration for full necrosis (CHO cells; Method B): 5%; cultures populated less compared to control untreated cells (PC-3 cells [2]; PC-3, 0.5 or 1.0 μM, 24 hours of incubation, no UV): ~25%; mobilized cells showing signs of apoptosis (Annexin V) (PC-3 cells [2]; PC-3, 24 hours incubation, cells collected from culture media): 93±5%
